Tests used:
sensory neurons [1] = experiment: Myelinated sensory neurons with or without cisplatin: neuron count, neurite length, myelin sheath length (Examples 7 and 8a, curative protocol); format: cell-based, rat; settings: for Average percentage of neurite length relative to control / Average percentage of sensory neuron count relative to control: isolated ions + cisplatin (12 μM, 24 h), Table 3
Description: Female rats with 15 days gestation were killed by cervical dislocation (Wistar rats; January Lab) and fetuses were removed from the uterus. Embryonic DRGs were collected and placed in an icy medium of Leibovitz 15 (L15; PanBiotech, Ref P04-27055, Batch: 5331021) containing 2% Penicillin-Streptomycin (PS; PanBiotech, ref: P06-07100, Batch: 9300621) and 1% bovine serum albumin (BSA; PanBiotech, ref: P06-1391100, lot: H210207). DRG were dissociated by trypsinization for 20 minutes (min) at 37° C. (Trypsin EDTA 1X; PanBiotech, Ref: P10-023100, Batch: 8600621). The reaction was halted by the addition of Dulbecco's modified Eagle medium (DMEM; PanBiotech, Ref: P04-03600, Batch: 1130721) containing DNase I grade II (0.1 mg/ml; PanBiotech, Ref: P60-37780100, Batch: H181015) and 10% fetal calf serum (FCS; Invitrogen, ref: 10270106, lot: 2319479). The cells were then mechanically dissociated by 3 passes through a 10 ml pipette. The cells were then centrifuged at 180×g for 10 min at +4° C. on a layer of BSA (3.5%) in medium L15. The supernatant was discarded and the cell pellets were resuspended in a defined culture medium consisting of Neurobasal (Invitrogen, Ref: 21103049, Batch: 2348949) supplemented with 2% B27; (Invitrogen, ref: 17504-044, Batch: 2336991), L-glutamine (2 mM; PanBiotech, Ref: P04-80100, Batch: 2770620), 2% PS and 50 ng/mL NGF (Sigma, Ref: N1408, Lot: SLCG2596). The viable cells were then counted in a Neubauer cytometer using the trypan blue exclusion test. The cells were seeded to a density of 12000 cells/wells in 96-well plates (pre-coated with poly-D-lysine; Greiner, Ref: 655940, Lot: E200933A) and were grown at 37° C. in humidified air (95%/CO2 (5%) atmosphere. Half of the middle was changed every 2 days with fresh medium. The cells are maintained for 7 days to allow the proliferation of Schwann cells and sensory neurons. On day 8, the medium is supplemented with 50 μg/mL of ascorbic acid (AA; Sigma, Ref 092902, Batch: 05316HJ-438) to initiate the differentiation of basal Schwann cells into myelinating Schwann cells.
Cis-diammineplatinum(II) dichloride (cisplatin; Sigma, ref: P4394, lot: MKCN8054) was reconstituted in DMSO at 24 mM (stock solution). The control environment was prepared under the same conditions. After 12 days of culture with AA, the primary sensory neurons were pretreated for 2 hours with the compositions of Example 1 or with a reference compound (NGF, 50 ng/ML) and then intoxicated with cisplatin. The cisplatin preparation was used on neurons at a final concentration of 12 μM diluted in control medium for 24 hours of incubation.
In parallel, the effect of isolated or combined ions two by two on the survival of sensory neurons and the length of neurites was also evaluated under the same conditions. The solutions are all prepared from chlorides of the ions tested.
The effect of ion combinations on sensory neuron survival and neurite length was evaluated under the same conditions as described above. The solutions are all prepared from chlorides of the ions tested.

IL-1β = IL-1β in supernatant of LPS-stimulated human mononuclear blood cells; format: cell-based; settings: for Results IL-1β (percentage relative to the vehicle): 2 h pretreatment, LPS 100 ng/mL 6 h; for reduction of IL-1β levels, in words: LPS 100 ng/mL, FIG. 7-9
Description: (§1) Methods: Mononuclear blood cells are isolated from the blood of healthy donors through Ficoll density gradient (Ficoll-Paque PLUS; GE Healthcare; 11778538) with density gradient centrifuge tubes (SepMate; StemCell Technologies; 85450). The mononuclear blood cells are deposited (200000 cells per well) in 96-well plates, pretreated either with the vehicle (0.179% PBS) or with a composition according to the invention or ions alone (see Table 6) for 2 hours, then stimulated for 6 hours without (vehicle 0.002% H2O) or with lipopolysaccharides (LPS at 100 ng/mL; Invivogen, tlrl-b5lps) at 37° C., 5% C02 in an RPMI medium containing 10% fetal calf serum and 1% penicillin/streptomycin. After 6 hours of incubation, the culture supernatant is collected and stored at −20° C. until cytokine analysis. The level of cytokines (IL-1β and IL-18) is quantified in the culture supernatant by ELISA according to the manufacturer's instructions (R&D Systems; DY201, DY318-05). Table 6 summarizes the percentage of IL-1β and IL-18 cytokines measured for each condition relative to the vehicle (ns: not significant)

IL-18 = IL-18 in supernatant of LPS-stimulated human mononuclear blood cells; format: cell-based; settings: for Results IL-18 (percentage relative to the vehicle): 2 h pretreatment, LPS 100 ng/mL 6 h; for reduction of IL-18 levels, in words: LPS 100 ng/mL, FIG. 7-9
Description: as §1

sensory neurons [2] = experiment: Myelinated sensory neurons with or without cisplatin: neuron count, neurite length, myelin sheath length (Examples 7 and 8a, curative protocol); format: cell-based, rat; settings: without cisplatin (healthy cells), Table 2
sensory neurons [3] = experiment: Myelinated sensory neurons with or without cisplatin: survival, neurite length, myelin sheath length (Example 8b, protection protocol); format: cell-based, rat; settings: cisplatin 12 μM, 24 hours
Description: The primary endpoint was the measurement of sensory neurons survival, the assessment of neurite length and myelin sheath length of sensory neurons after cisplatin intoxication and without intoxication.
Cis-diammineplatinum (II) dichloride (cisplatin; Sigma, ref: P4394, lot: MKCL0026) was reconstituted in medium at 10 mg/ml (stock solution). The control environment was prepared under the same conditions. After 12 days of culture with AA, primary sensory neurons were pretreated for 2 hours with a 3-concentration multi-ionic complex and then intoxicated with cisplatin. The cisplatin preparation was used on neurons at a final concentration of 12 μM diluted in control medium for 24 hours of incubation.
The concentrations of the multi-ionic complex were: • 1. TA6496: Li 10.37 mmol/kg, Mg 2.27 mmol/kg, K 16.88 mmol/kg • 2. TA6440: Li 5.76 mmol/kg, Mg 1.26 mmol/kg, K 9.38 mmol/kg • 3. TA6415: Li 1.73 mmol/kg, Mg 0.38 mmol/kg, K 2.81 mmol/kg
The following conditions were assessed: • Control medium • Control+cisplatin (12 μM, 24h) • Multi-ionic complex, at 3 different concentrations TA6496, TA6440 or TA6415+cisplatin (12 μM, 24h) • Multi-ionic complex, at 3 different concentrations TA6496, TA6440 or TA6415.
This study was performed with 6 wells per condition and duplicated for validation of results. The data included and analysed are the combined results of the 2 studies. […]

[4] = rats; cited from earlier work

[Cl-].[Cl-].[Mg+2] [Mg, magnesium chloride]
Average percentage of neurite length relative to control (sensory neurons [1]): 73%
Average percentage of sensory neuron count relative to control (sensory neurons [1]): 68%
Results IL-1β (percentage relative to the vehicle) (IL-1β; listed as Mg - 55.4 mg/L): 100.91%
Results IL-1β (percentage relative to the vehicle) (IL-1β; listed as Mg - 73.9 mg/L): 97.41%
reduction of IL-1β levels, in words (IL-1β): Neither magnesium, lithium, nor potassium, alone, demonstrated significant reductions
Results IL-18 (percentage relative to the vehicle) (IL-18; listed as Mg - 55.4 mg/L): 102.41%
Results IL-18 (percentage relative to the vehicle) (IL-18; listed as Mg - 73.9 mg/L): 95.28%
reduction of IL-18 levels, in words (IL-18): Neither magnesium, lithium, nor potassium, alone, demonstrated significant reductions
Average percentage of neurite length relative to control (sensory neurons [2]): 98%
Average percentage of sensory neuron count relative to control (sensory neurons [2]): 108%

[Mn+2] [Manganese]
effect on neurite length, in words (sensory neurons [1]; cisplatin 12 μM, 24 h): without demonstrating any significant effect
effect on survival of sensory neurons (cisplatin-induced apoptosis), in words (sensory neurons [1]; cisplatin 12 μM, 24 h): without demonstrating any significant effect
effect on myelin sheath length, in words (sensory neurons [3]): without demonstrating any significant effect

[Cl-].[K+] [K, potassium chloride]
Average percentage of neurite length relative to control (sensory neurons [1]): 91%
Average percentage of sensory neuron count relative to control (sensory neurons [1]): 58%
Results IL-1β (percentage relative to the vehicle) (IL-1β; listed as K - 660 mg/L): 80.52%
Results IL-1β (percentage relative to the vehicle) (IL-1β; listed as K - 880 mg/L): 85.31%
reduction of IL-1β levels, in words (IL-1β): Neither magnesium, lithium, nor potassium, alone, demonstrated significant reductions
Results IL-18 (percentage relative to the vehicle) (IL-18; listed as K - 660 mg/L): 72.48%
Results IL-18 (percentage relative to the vehicle) (IL-18; listed as K - 880 mg/L): 69.71%
reduction of IL-18 levels, in words (IL-18): Neither magnesium, lithium, nor potassium, alone, demonstrated significant reductions
Average percentage of neurite length relative to control (sensory neurons [2]): 115%
Average percentage of sensory neuron count relative to control (sensory neurons [2]): 117%
intravenous lethal dose 50 (LD50) over 24 hours [4]: 142 mg/kg

Reference: patent US20250345362A1, “MULTI-IONIC COMPLEX FOR THE PREVENTION OR TREATMENT OF INFLAMMATION” (YNIOS PHARMA, priority 2022, published 2025)
